# Values of other authors in patent US12012625B2, “Method for producing bioactive composition” (Imam Abdulrahman Bin Faisal University, priority 2020, dated 2024).
# Key:
# [1] = system: B. amyloliquefaciens
# [2] = system: B. subtilis
compound,measurement,setting,value
Cc1cc(=O)c2c(O)c3c(O)cc(=O)c4c3c3c(c(Cl)c(O)c1c23)C(C)(C)C=4O [chlorxanthomycin],growth inhibition,[1],inhibited the growth
same,growth inhibition,[2],inhibited the growth
